Data published in PubChem BioAssay (NCI).
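The compound was tested at five concentrations on cells cultured in 96-well plates, with a 48-hour exposure period. Abbreviation: GI50, concentration required for 50% inhibition of growth. TGI: concentration producing complete growth inhibition.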

What was measured:
Assay in all cases: NCI tumour cell line growth inhibition, 48 h
NCI-H460 lung = tested on: NCI-H460 lung
M14 melanoma = tested on: M14 melanoma
HCT-116 colon = tested on: HCT-116 colon
SK-MEL-2 melanoma = tested on: SK-MEL-2 melanoma
SR leukemia = tested on: SR leukemia
SK-MEL-28 melanoma = tested on: SK-MEL-28 melanoma
MCF7 breast = tested on: MCF7 breast
NCI-H226 lung = tested on: NCI-H226 lung

COC12C=C/C(=C(/C(=O)OCc3cncnc3)C(=O)CCCCCCCCC3(OC)C=C/C(=C(/C(=O)OCc4cncnc4)C(=O)CCCCCCCC1)O3)O2
GI50 (NCI-H460 lung): 0.71 µM
TGI (NCI-H460 lung): 1.91 µM
GI50 (M14 melanoma): 0.167 µM
TGI (M14 melanoma): 1.61 µM
GI50 (HCT-116 colon): 0.146 µM
TGI (HCT-116 colon): 0.433 µM
GI50 (SK-MEL-2 melanoma): 1.13 µM
TGI (SK-MEL-2 melanoma): 18.1 µM
GI50 (SR leukemia): 0.155 µM
TGI (SR leukemia): 6.61 µM
GI50 (SK-MEL-28 melanoma): 0.325 µM
TGI (SK-MEL-28 melanoma): 1.65 µM
GI50 (MCF7 breast): 0.209 µM
TGI (MCF7 breast): 2.32 µM
GI50 (NCI-H226 lung): 0.656 µM
TGI (NCI-H226 lung): 1.65 µM

C[C@@]1(C(=O)O)CCC[C@]2(C)C1CC[C@@]13CC(=O)[C@@](CO)(CC[C@]12O)C3 (stereo partly specified)
GI50 (NCI-H460 lung): > 100 µM
TGI (NCI-H460 lung): > 100 µM
GI50 (M14 melanoma): > 100 µM
TGI (M14 melanoma): > 100 µM
GI50 (HCT-116 colon): > 100 µM
TGI (HCT-116 colon): > 100 µM
GI50 (SK-MEL-2 melanoma): > 100 µM
TGI (SK-MEL-2 melanoma): > 100 µM
GI50 (SR leukemia): > 100 µM
TGI (SR leukemia): > 100 µM
GI50 (SK-MEL-28 melanoma): > 100 µM
TGI (SK-MEL-28 melanoma): > 100 µM
GI50 (MCF7 breast): > 100 µM
TGI (MCF7 breast): > 100 µM
GI50 (NCI-H226 lung): > 100 µM
TGI (NCI-H226 lung): > 100 µM

CC[C@@H]1c2c(C#N)ncn2-c2cnc(Nc3ccc(C(=O)NC4CCN(C5CCN(CC6CC6)CC5)CC4)cc3OC)nc2N1C1CCCC1
GI50 (NCI-H460 lung): 0.0354 µM
TGI (NCI-H460 lung): 1.28 µM
GI50 (M14 melanoma): 0.0316 µM
TGI (M14 melanoma): 1.35 µM
GI50 (HCT-116 colon): 0.0313 µM
TGI (HCT-116 colon): 1.19 µM
GI50 (SK-MEL-2 melanoma): 0.0407 µM
TGI (SK-MEL-2 melanoma): 1.82 µM
GI50 (SR leukemia): 0.0387 µM
TGI (SR leukemia): 1.02 µM
GI50 (SK-MEL-28 melanoma): 0.127 µM
TGI (SK-MEL-28 melanoma): 1.75 µM
GI50 (MCF7 breast): 0.00514 µM
TGI (MCF7 breast): 1.2 µM
GI50 (NCI-H226 lung): 1.31 µM
TGI (NCI-H226 lung): 2.64 µM

O=C1C(Cl)=C(Nc2cccc(F)c2)C(=O)N1Cc1ccc(Cl)cc1
GI50 (NCI-H460 lung): 1.08 µM
GI50 (M14 melanoma): 1.2 µM
TGI (M14 melanoma): 4.35 µM
GI50 (HCT-116 colon): 0.392 µM
TGI (HCT-116 colon): 2.7 µM
GI50 (SK-MEL-2 melanoma): 5.96 µM
TGI (SK-MEL-2 melanoma): > 28.4 µM
GI50 (SR leukemia): 0.128 µM
GI50 (SK-MEL-28 melanoma): 2.96 µM
TGI (SK-MEL-28 melanoma): 20.6 µM
GI50 (MCF7 breast): 1.06 µM
TGI (MCF7 breast): 7.91 µM
GI50 (NCI-H226 lung): 0.188 µM
TGI (NCI-H226 lung): 0.852 µM

NS(=O)(=O)c1ccc(-n2nc(-c3ccc(Cl)cc3)cc2-c2cc(O)ccc2O)cc1
GI50 (NCI-H460 lung): 7.81 µM
TGI (NCI-H460 lung): > 100 µM
GI50 (M14 melanoma): 5.82 µM
TGI (M14 melanoma): 17.4 µM
GI50 (SK-MEL-2 melanoma): 33.5 µM
TGI (SK-MEL-2 melanoma): > 100 µM
GI50 (SR leukemia): 3.85 µM
TGI (SR leukemia): > 100 µM
GI50 (MCF7 breast): 5.97 µM
TGI (MCF7 breast): > 100 µM
GI50 (NCI-H226 lung): 10.1 µM
TGI (NCI-H226 lung): 24.5 µM

CCCCON(OC(=O)c1ccc2ccccc2c1)C(=O)c1ccccc1
GI50 (NCI-H460 lung): > 100 µM
TGI (NCI-H460 lung): > 100 µM
GI50 (M14 melanoma): > 100 µM
TGI (M14 melanoma): > 100 µM
GI50 (HCT-116 colon): 34.8 µM
TGI (HCT-116 colon): > 100 µM
GI50 (SK-MEL-2 melanoma): > 100 µM
TGI (SK-MEL-2 melanoma): > 100 µM
GI50 (SR leukemia): 31.5 µM
TGI (SR leukemia): 77.1 µM
GI50 (SK-MEL-28 melanoma): > 100 µM
TGI (SK-MEL-28 melanoma): > 100 µM
GI50 (MCF7 breast): 60.1 µM
TGI (MCF7 breast): > 100 µM
GI50 (NCI-H226 lung): 74 µM
TGI (NCI-H226 lung): > 100 µM

O=C(CCCCCCNC(=O)c1cnc(N(c2ccccc2)c2ccccc2)nc1)NO
GI50 (NCI-H460 lung): 2.75 µM
TGI (NCI-H460 lung): > 100 µM
GI50 (M14 melanoma): 3.57 µM
TGI (M14 melanoma): > 100 µM
GI50 (HCT-116 colon): 2.07 µM
TGI (HCT-116 colon): > 33.9 µM
GI50 (SK-MEL-2 melanoma): 1.9 µM
TGI (SK-MEL-2 melanoma): 8.36 µM
GI50 (SR leukemia): 1.22 µM
TGI (SR leukemia): > 100 µM
GI50 (SK-MEL-28 melanoma): 3.41 µM
TGI (SK-MEL-28 melanoma): 33.3 µM
GI50 (MCF7 breast): 2.99 µM
TGI (MCF7 breast): > 67.1 µM
GI50 (NCI-H226 lung): 16.6 µM
TGI (NCI-H226 lung): > 91.4 µM

COc1cccc(N2CCN(CC(=O)N3CCN(c4nnc(-c5ccc(Cl)cc5)c(-c5ccc(Cl)cc5)n4)CC3)CC2)c1
GI50 (NCI-H460 lung): 24.5 µM
TGI (NCI-H460 lung): > 100 µM
GI50 (M14 melanoma): 30.2 µM
TGI (M14 melanoma): > 100 µM
GI50 (HCT-116 colon): 5.98 µM
TGI (HCT-116 colon): > 100 µM
GI50 (SK-MEL-2 melanoma): 35.1 µM
TGI (SK-MEL-2 melanoma): > 100 µM
GI50 (SR leukemia): 5.04 µM
TGI (SR leukemia): 31.3 µM
GI50 (SK-MEL-28 melanoma): > 100 µM
TGI (SK-MEL-28 melanoma): > 100 µM
GI50 (MCF7 breast): 5.14 µM
TGI (MCF7 breast): 61.3 µM
GI50 (NCI-H226 lung): 88.3 µM
TGI (NCI-H226 lung): > 100 µM

COc1ccc(C(=S)N2CCN(c3cccc(C)c3)CC2)cc1OC
GI50 (NCI-H460 lung): 3.38 µM
TGI (NCI-H460 lung): > 100 µM
GI50 (M14 melanoma): 3.18 µM
TGI (M14 melanoma): > 100 µM
GI50 (HCT-116 colon): 3.47 µM
TGI (HCT-116 colon): > 100 µM
GI50 (SK-MEL-2 melanoma): 47.5 µM
TGI (SK-MEL-2 melanoma): > 100 µM
GI50 (SR leukemia): 1.53 µM
TGI (SR leukemia): > 100 µM
GI50 (SK-MEL-28 melanoma): 5.42 µM
TGI (SK-MEL-28 melanoma): > 100 µM
GI50 (MCF7 breast): 3.06 µM
TGI (MCF7 breast): > 100 µM
GI50 (NCI-H226 lung): > 100 µM
TGI (NCI-H226 lung): > 100 µM

O=c1[nH]c(=O)c2cn[nH]c2[nH]1
GI50 (NCI-H460 lung): > 100 µM
TGI (NCI-H460 lung): > 100 µM
GI50 (M14 melanoma): > 100 µM
TGI (M14 melanoma): > 100 µM
GI50 (HCT-116 colon): > 100 µM
TGI (HCT-116 colon): > 100 µM
GI50 (SK-MEL-2 melanoma): > 100 µM
TGI (SK-MEL-2 melanoma): > 100 µM
GI50 (SR leukemia): > 100 µM
TGI (SR leukemia): > 100 µM
GI50 (SK-MEL-28 melanoma): > 100 µM
TGI (SK-MEL-28 melanoma): > 100 µM
GI50 (MCF7 breast): > 100 µM
TGI (MCF7 breast): > 100 µM
GI50 (NCI-H226 lung): > 100 µM
TGI (NCI-H226 lung): > 100 µM

Cc1cccc(/C=C/c2c(C(=O)/C=C/c3ccccc3)c(C)nc3ccccc23)c1
GI50 (NCI-H460 lung): 1.3 µM
TGI (NCI-H460 lung): 2.94 µM
GI50 (SK-MEL-2 melanoma): 1.77 µM
TGI (SK-MEL-2 melanoma): 3.63 µM
GI50 (SR leukemia): 0.982 µM
TGI (SR leukemia): 4.94 µM
GI50 (SK-MEL-28 melanoma): 1.81 µM
TGI (SK-MEL-28 melanoma): 3.28 µM
GI50 (MCF7 breast): 0.565 µM
TGI (MCF7 breast): 4.22 µM
GI50 (NCI-H226 lung): 1.73 µM
TGI (NCI-H226 lung): 3.82 µM
